Reference: the supplement of paper PMC10307832

Assays:
Experiment in all cases: relative viability (nuclei count vs DMSO), 5 days (fraction); higher = more cells survive
201T = system: 201T
In short: (§1)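 One day after seeding in 1536-well plates, lung cancer cell lines were dosed by pin tool. Dosing was either single-drug or a fixed anchor-drug dose plus five library-drug doses (not always all listed) in √10 steps. After 5 days, nuclei were stained in one fix-and-stain step and counted on 4× images, and relative viability is the nuclei count of treated wells over that of vehicle wells, given as the median of duplicate plates.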

BEN = system: BEN
In short: as §1

CAL-12T = system: CAL-12T
In short: as §1

HCC-827 = system: HCC-827
In short: as §1

LCLC-103H = system: LCLC-103H
In short: as §1

LCLC-97TM1 = system: LCLC-97TM1
In short: as §1

LXF-289 = system: LXF-289
In short: as §1

NCI-H1437 = system: NCI-H1437
In short: as §1

NCI-H1650 = system: NCI-H1650
In short: as §1

NCI-H1792 = system: NCI-H1792
In short: as §1

NCI-H1944 = system: NCI-H1944
In short: as §1

NCI-H2087 = system: NCI-H2087
In short: as §1

NCI-H2228 = system: NCI-H2228
In short: as §1

NCI-H2405 = system: NCI-H2405
In short: as §1

NCI-H3122 = system: NCI-H3122
In short: as §1

NCI-H322M = system: NCI-H322M
In short: as §1

NCI-H647 = system: NCI-H647
In short: as §1

NCI-H727 = system: NCI-H727
In short: as §1

RERF-LC-KJ = system: RERF-LC-KJ
In short: as §1

SK-LU-1 = system: SK-LU-1
In short: as §1

Q: Which relative viability (201T; first compound 0.08 µM) does the source give for `O=c1cc(-c2cccc3c2Sc2ccccc2S3)oc(N2CCOCC2)c1` + C[C@@H](Oc1cc(-c2cnn(C3CCNCC3)c2)cnc1N)c1c(Cl)ccc(F)c1Cl [Crizotinib] (partner 1 µM) here?
A: 1

Q: And the relative viability (201T; first compound 0.253 µM)?
A: 0.889

Q: And the relative viability (201T; first compound 0.8 µM)?
A: 1

Q: And the relative viability (201T; first compound 2.53 µM)?
A: 1.08

Q: What about the relative viability (201T; first compound 8 µM) of the same molecule?
A: 0.958

Q: What about the relative viability (BEN; first compound 0.08 µM) of the same molecule?
A: 0.925

Q: And the relative viability (BEN; first compound 0.253 µM)?
A: 1.02

Q: And the relative viability (BEN; first compound 0.8 µM)?
A: 1.1

Q: What about the relative viability (BEN; first compound 2.53 µM) of the same molecule?
A: 0.85

Q: What about the relative viability (BEN; first compound 8 µM) of the same molecule?
A: 1.14

Q: And the relative viability (CAL-12T; first compound 0.08 µM)?
A: 0.729

Q: What about the relative viability (CAL-12T; first compound 0.253 µM) of the same molecule?
A: 0.686

Q: And the relative viability (CAL-12T; first compound 0.8 µM)?
A: 0.85

Q: What about the relative viability (CAL-12T; first compound 2.53 µM) of the same molecule?
A: 0.6

Q: And the relative viability (CAL-12T; first compound 8 µM)?
A: 0.731

Q: And the relative viability (HCC-827; first compound 0.08 µM)?
A: 0.943

Q: What about the relative viability (HCC-827; first compound 0.253 µM) of the same molecule?
A: 0.921

Q: What about the relative viability (HCC-827; first compound 0.8 µM) of the same molecule?
A: 0.997

Q: And the relative viability (HCC-827; first compound 2.53 µM)?
A: 0.8

Q: And the relative viability (HCC-827; first compound 8 µM)?
A: 0.967

Q: And the relative viability (LCLC-103H; first compound 0.08 µM)?
A: 1.06

Q: What about the relative viability (LCLC-103H; first compound 0.253 µM) of the same molecule?
A: 1.07

Q: What about the relative viability (LCLC-103H; first compound 0.8 µM) of the same molecule?
A: 1.06

Q: What about the relative viability (LCLC-103H; first compound 2.53 µM) of the same molecule?
A: 1.05

Q: And the relative viability (LCLC-103H; first compound 8 µM)?
A: 1.05

Q: What about the relative viability (LCLC-97TM1; first compound 0.08 µM) of the same molecule?
A: 0.373

Q: What about the relative viability (LCLC-97TM1; first compound 0.253 µM) of the same molecule?
A: 0.408

Q: And the relative viability (LCLC-97TM1; first compound 0.8 µM)?
A: 0.459

Q: And the relative viability (LCLC-97TM1; first compound 2.53 µM)?
A: 0.334

Q: What about the relative viability (LCLC-97TM1; first compound 8 µM) of the same molecule?
A: 0.456

Q: And the relative viability (LXF-289; first compound 0.08 µM)?
A: 0.839

Q: What about the relative viability (LXF-289; first compound 0.253 µM) of the same molecule?
A: 0.877

Q: And the relative viability (LXF-289; first compound 0.8 µM)?
A: 0.849

Q: And the relative viability (LXF-289; first compound 2.53 µM)?
A: 0.8

Q: And the relative viability (LXF-289; first compound 8 µM)?
A: 0.845

Q: What about the relative viability (NCI-H1437; first compound 0.08 µM) of the same molecule?
A: 1.09

Q: What about the relative viability (NCI-H1437; first compound 0.253 µM) of the same molecule?
A: 1.18

Q: What about the relative viability (NCI-H1437; first compound 0.8 µM) of the same molecule?
A: 1.24

Q: What about the relative viability (NCI-H1437; first compound 2.53 µM) of the same molecule?
A: 0.899

Q: What about the relative viability (NCI-H1437; first compound 8 µM) of the same molecule?
A: 1.07

Q: And the relative viability (NCI-H1650; first compound 0.08 µM)?
A: 0.998

Q: What about the relative viability (NCI-H1650; first compound 0.253 µM) of the same molecule?
A: 0.956

Q: And the relative viability (NCI-H1650; first compound 0.8 µM)?
A: 0.945

Q: And the relative viability (NCI-H1650; first compound 2.53 µM)?
A: 0.963

Q: And the relative viability (NCI-H1650; first compound 8 µM)?
A: 1.35

Q: What about the relative viability (NCI-H1792; first compound 0.253 µM) of the same molecule?
A: 1.64

Q: What about the relative viability (NCI-H1792; first compound 0.8 µM) of the same molecule?
A: 0.987

Q: And the relative viability (NCI-H1792; first compound 2.53 µM)?
A: 0.896

Q: What about the relative viability (NCI-H1792; first compound 8 µM) of the same molecule?
A: 1.19

Q: And the relative viability (NCI-H1944; first compound 0.08 µM)?
A: 1.12

Q: What about the relative viability (NCI-H1944; first compound 0.253 µM) of the same molecule?
A: 1.23

Q: And the relative viability (NCI-H1944; first compound 0.8 µM)?
A: 1.17

Q: What about the relative viability (NCI-H1944; first compound 8 µM) of the same molecule?
A: 1.08

Q: What about the relative viability (NCI-H2087; first compound 0.08 µM) of the same molecule?
A: 0.982

Q: What about the relative viability (NCI-H2087; first compound 0.253 µM) of the same molecule?
A: 0.966

Q: What about the relative viability (NCI-H2087; first compound 0.8 µM) of the same molecule?
A: 1.12

Q: And the relative viability (NCI-H2087; first compound 2.53 µM)?
A: 0.927

Q: And the relative viability (NCI-H2087; first compound 8 µM)?
A: 1.01

Q: And the relative viability (NCI-H2228; first compound 0.08 µM)?
A: 0.407

Q: And the relative viability (NCI-H2228; first compound 0.253 µM)?
A: 0.506

Q: And the relative viability (NCI-H2228; first compound 0.8 µM)?
A: 0.399

Q: And the relative viability (NCI-H2228; first compound 2.53 µM)?
A: 0.394

Q: What about the relative viability (NCI-H2228; first compound 8 µM) of the same molecule?
A: 0.354

Q: And the relative viability (NCI-H2405; first compound 0.08 µM)?
A: 0.831

Q: And the relative viability (NCI-H2405; first compound 0.253 µM)?
A: 0.887

Q: And the relative viability (NCI-H2405; first compound 0.8 µM)?
A: 0.832

Q: And the relative viability (NCI-H2405; first compound 2.53 µM)?
A: 0.759

Q: And the relative viability (NCI-H2405; first compound 8 µM)?
A: 0.853

Q: And the relative viability (NCI-H3122; first compound 0.08 µM)?
A: 0.324

Q: What about the relative viability (NCI-H3122; first compound 0.253 µM) of the same molecule?
A: 0.266

Q: What about the relative viability (NCI-H3122; first compound 0.8 µM) of the same molecule?
A: 0.24

Q: And the relative viability (NCI-H3122; first compound 2.53 µM)?
A: 0.3

Q: And the relative viability (NCI-H3122; first compound 8 µM)?
A: 0.323

Q: And the relative viability (NCI-H322M; first compound 0.08 µM)?
A: 0.885

Q: What about the relative viability (NCI-H322M; first compound 0.253 µM) of the same molecule?
A: 0.901

Q: And the relative viability (NCI-H322M; first compound 0.8 µM)?
A: 1.04

Q: And the relative viability (NCI-H322M; first compound 2.53 µM)?
A: 0.937

Q: And the relative viability (NCI-H322M; first compound 8 µM)?
A: 1.08

Q: And the relative viability (NCI-H647; first compound 0.08 µM)?
A: 1.06

Q: And the relative viability (NCI-H647; first compound 0.253 µM)?
A: 1.09

Q: And the relative viability (NCI-H647; first compound 0.8 µM)?
A: 0.949

Q: And the relative viability (NCI-H647; first compound 2.53 µM)?
A: 1.02

Q: What about the relative viability (NCI-H647; first compound 8 µM) of the same molecule?
A: 1.12

Q: And the relative viability (NCI-H727; first compound 0.253 µM)?
A: 0.892

Q: What about the relative viability (NCI-H727; first compound 2.53 µM) of the same molecule?
A: 0.724

Q: And the relative viability (NCI-H727; first compound 8 µM)?
A: 0.868

Q: What about the relative viability (RERF-LC-KJ; first compound 0.08 µM) of the same molecule?
A: 0.823

Q: And the relative viability (RERF-LC-KJ; first compound 0.253 µM)?
A: 0.922

Q: What about the relative viability (RERF-LC-KJ; first compound 0.8 µM) of the same molecule?
A: 0.871

Q: And the relative viability (RERF-LC-KJ; first compound 2.53 µM)?
A: 0.948

Q: What about the relative viability (RERF-LC-KJ; first compound 8 µM) of the same molecule?
A: 1.05

Q: What about the relative viability (SK-LU-1; first compound 0.08 µM) of the same molecule?
A: 0.812

Q: What about the relative viability (SK-LU-1; first compound 0.253 µM) of the same molecule?
A: 1.04

Q: And the relative viability (SK-LU-1; first compound 0.8 µM)?
A: 1.14

Q: And the relative viability (SK-LU-1; first compound 2.53 µM)?
A: 0.905

Q: And the relative viability (SK-LU-1; first compound 8 µM)?
A: 0.849
